Reference: the NIST ThermoML archive (doi:10.1021/acs.jced.6b00587)

Details: Liquid, Ebulliometric method (Recirculating still)

CCCCCCC [heptane]
Details	vapor or sublimation pressure [kPa]
331.39 K	26.15
335.45 K	30.59
341.94 K	38.89
347.16 K	46.8
349.68 K	50.97
352.58 K	56.2
354.63 K	60
356.78 K	64.6
359.38 K	70.24
362.11 K	76.47
364.95 K	83.45
366.87 K	88.4
371.28 K	101.3

CCCCOCC [butyl ethyl ether]
Details	vapor or sublimation pressure [kPa]
336.22 K	38.6
340.35 K	44.96
344.21 K	51.67
346.8 K	56.24
348.84 K	60
350.44 K	63.63
354.01 K	71.58
357.31 K	79.6
361.44 K	90.59
363.47 K	96.36
365.25 K	101.3

CCCOCCC [dipropyl ether]
Details	vapor or sublimation pressure [kPa]
326.73 K	29.35
332.57 K	36.71
336.55 K	42.54
341.15 K	49.98
345.34 K	57.75
346.55 K	60
346.63 K	60
347.55 K	62.3
352.11 K	72.36
354.82 K	78.97
356.85 K	84.25
358.73 K	89.3
361.18 K	96.32
362.87 K	101.3
